Results: ChEMBL document CHEMBL1201862, “PubChem BioAssay data set” (2004)
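How tested: cells in 96-well plates exposed to compound for 48 hours at five concentrations. At the GI50, growth is halved.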 Calls of active or inactive are those of the source. Rule as the data show it: active = GI50 up to about 1.1 µM and inactive = higher.

Legend:
Test in all cases: DTP human tumour cell line panel, 48 h
KM12 = tested on: KM12
SK-OV-3 = tested on: SK-OV-3
NCI-H23 = tested on: NCI-H23
EKVX = tested on: EKVX
OVCAR-3 = tested on: OVCAR-3
A498 = tested on: A498
OVCAR-4 = tested on: OVCAR-4
COLO 205 = tested on: COLO 205
K562 = tested on: K562
HCC 2998 = tested on: HCC 2998
Malme-3M = tested on: Malme-3M
HOP-62 = tested on: HOP-62
OVCAR-8 = tested on: OVCAR-8
SK-MEL-2 = tested on: SK-MEL-2
LOX IMVI = tested on: LOX IMVI
HOP-92 = tested on: HOP-92

Measured: GI50

N=C(CC(=O)Nc1ccc(Cl)cc1)Nc1ccccc1
inactive: KM12 > 100 µM | SK-OV-3 > 100 µM | NCI-H23 > 100 µM | EKVX > 100 µM | OVCAR-3 > 100 µM | A498 > 100 µM | OVCAR-4 > 100 µM | COLO 205 > 100 µM | K562 > 100 µM | HCC 2998 > 100 µM | Malme-3M > 100 µM | HOP-62 > 100 µM | OVCAR-8 > 100 µM | SK-MEL-2 > 100 µM | LOX IMVI > 100 µM

C/C(=N/NS(=O)(=O)c1ccc(C)cc1)c1cccc[n+]1[O-]
inactive: KM12 > 100 µM | SK-OV-3 > 100 µM | HOP-92 > 100 µM | NCI-H23 > 100 µM | EKVX > 100 µM | OVCAR-3 > 100 µM | A498 > 100 µM | OVCAR-4 > 100 µM | HCC 2998 > 100 µM | HOP-62 > 100 µM | OVCAR-8 > 100 µM

C/C(CC(=O)CCCC(=O)Nc1ccc(Cl)cc1Cl)=N/NC(=O)CC#N
inactive: KM12 > 100 µM | SK-OV-3 > 100 µM | NCI-H23 > 100 µM | EKVX > 100 µM | OVCAR-3 > 100 µM | A498 > 100 µM | OVCAR-4 > 100 µM | COLO 205 > 100 µM | K562 > 100 µM | HCC 2998 > 100 µM | Malme-3M > 100 µM | OVCAR-8 > 100 µM | SK-MEL-2 > 100 µM | LOX IMVI > 100 µM

O=C(O)c1ccc2c(c1)C(=O)N(c1ccc(S(=O)(=O)c3ccc(N4C(=O)c5ccc(C(=O)O)cc5C4=O)cc3)cc1)C2=O
inactive: KM12 > 100 µM | SK-OV-3 > 100 µM | NCI-H23 > 100 µM | EKVX > 100 µM | OVCAR-3 > 100 µM | A498 > 100 µM | OVCAR-4 > 100 µM | COLO 205 > 100 µM | K562 > 100 µM | Malme-3M > 100 µM | HOP-62 > 100 µM | OVCAR-8 > 100 µM | SK-MEL-2 > 100 µM | LOX IMVI > 100 µM

OC12c3ccccc3C1(N1CCOCC1)CCCCC21OCCCO1 (centres undefined)
inactive: KM12 > 100 µM | SK-OV-3 > 100 µM | NCI-H23 > 100 µM | OVCAR-3 > 100 µM | A498 > 100 µM | OVCAR-4 > 100 µM | COLO 205 > 100 µM | K562 > 100 µM | Malme-3M > 100 µM | HOP-62 > 100 µM | OVCAR-8 > 100 µM | SK-MEL-2 > 100 µM | LOX IMVI > 100 µM

CCCCCCCCCCCc1nnc(N)o1
inactive: KM12 > 100 µM | SK-OV-3 > 100 µM | HOP-92 > 100 µM | NCI-H23 > 100 µM | OVCAR-3 > 100 µM | OVCAR-4 65.2 µM | COLO 205 > 100 µM | K562 51.5 µM | HCC 2998 > 100 µM | Malme-3M > 100 µM | HOP-62 > 100 µM | OVCAR-8 > 100 µM | SK-MEL-2 > 100 µM | LOX IMVI > 100 µM

COc1cc(C(=O)C/C(CCC(=O)Nc2ccccc2[N+](=O)[O-])=N\NC(=O)C(N)=O)ccc1O
inactive: KM12 > 100 µM | SK-OV-3 > 100 µM | HOP-92 65.3 µM | NCI-H23 > 100 µM | EKVX > 100 µM | OVCAR-3 > 100 µM | OVCAR-4 > 100 µM | COLO 205 > 100 µM | K562 > 100 µM | HOP-62 > 100 µM | OVCAR-8 > 100 µM | SK-MEL-2 > 100 µM | LOX IMVI > 100 µM

CC1CC#CCOC(=O)CCCC1=O (centres undefined)
inactive: KM12 > 100 µM | SK-OV-3 > 100 µM | NCI-H23 > 100 µM | OVCAR-3 > 100 µM | OVCAR-4 > 100 µM | COLO 205 > 100 µM | K562 > 100 µM | HCC 2998 > 100 µM | HOP-62 > 100 µM | OVCAR-8 > 100 µM | LOX IMVI > 100 µM

C[N+](C)=c1[nH]c2ccccc2[nH]1
inactive: KM12 > 100 µM | SK-OV-3 > 100 µM | HOP-92 > 100 µM | NCI-H23 > 100 µM | EKVX > 100 µM | OVCAR-3 > 100 µM | OVCAR-4 > 100 µM | COLO 205 > 100 µM | K562 > 100 µM | HCC 2998 > 100 µM | Malme-3M > 100 µM | HOP-62 > 100 µM | OVCAR-8 > 100 µM | SK-MEL-2 > 100 µM | LOX IMVI > 100 µM

COP12(OC)NC(=O)OC1(C(F)(F)F)c1ccccc1O2 (centres undefined)
inactive: KM12 > 100 µM | SK-OV-3 > 100 µM | NCI-H23 > 100 µM | OVCAR-3 > 100 µM | OVCAR-4 > 100 µM | K562 > 100 µM | Malme-3M > 100 µM | OVCAR-8 > 100 µM | SK-MEL-2 > 100 µM | LOX IMVI > 100 µM

O=P1(c2ccccc2)CCCCC1
inactive: KM12 > 100 µM | SK-OV-3 > 100 µM | NCI-H23 > 100 µM | EKVX > 100 µM | OVCAR-3 > 100 µM | A498 > 100 µM | OVCAR-4 > 100 µM | COLO 205 > 100 µM | K562 > 100 µM | HCC 2998 > 100 µM | Malme-3M > 100 µM | HOP-62 > 100 µM | OVCAR-8 > 100 µM | SK-MEL-2 > 100 µM | LOX IMVI > 100 µM

CC(=O)OCC1OC(n2cccnc2=O)C(OC(C)=O)C1OC(C)=O (centres undefined)
inactive: KM12 > 100 µM | SK-OV-3 > 100 µM | HOP-92 > 100 µM | EKVX > 100 µM | OVCAR-3 > 100 µM | A498 > 100 µM | OVCAR-4 > 100 µM | COLO 205 > 100 µM | K562 > 100 µM | Malme-3M > 100 µM | HOP-62 > 100 µM | OVCAR-8 > 100 µM | SK-MEL-2 > 100 µM | LOX IMVI > 100 µM

Cc1cccc(O)c(=O)c1
inactive: KM12 20.3 µM | SK-OV-3 > 100 µM | HOP-92 89.3 µM | EKVX 23.6 µM | OVCAR-3 11.6 µM | A498 54 µM | OVCAR-4 45.8 µM | COLO 205 6.24 µM | HCC 2998 44.4 µM | Malme-3M 31 µM | HOP-62 39.2 µM | OVCAR-8 19.1 µM | LOX IMVI 7.03 µM

Cc1ccc2nc3c(Cl)cc(=O)cc-3sc2c1
inactive: KM12 > 10 µM | SK-OV-3 > 10 µM | HOP-92 21.8 µM | NCI-H23 > 10 µM | EKVX 22.2 µM | OVCAR-3 3 µM | OVCAR-4 16.1 µM | COLO 205 18.7 µM | K562 17.6 µM | Malme-3M 30 µM | OVCAR-8 21.2 µM | SK-MEL-2 > 10 µM

COc1ccc(-c2csc(=[N+]3CCCCC3)s2)cc1
inactive: KM12 2.36 µM | SK-OV-3 3.41 µM | HOP-92 2.38 µM | NCI-H23 1.63 µM | EKVX 6.76 µM | OVCAR-3 3.92 µM | OVCAR-4 4.48 µM | COLO 205 1.49 µM | K562 2.23 µM | HCC 2998 3.85 µM | Malme-3M 2.76 µM | HOP-62 2.54 µM | OVCAR-8 3.05 µM | SK-MEL-2 3.63 µM | LOX IMVI 4.83 µM
